Experimental data published in publication PMC12797170, “Potent Competitive Inhibitors of Ecto-5′-nucleotidase (CD73) based on 6‑(Het)aryl-7-deazapurine Ribonucleoside 5′‑O‑Bisphosphonates” (ACS Pharmacology & Translational Science, 2025).
Converted amounts (≈) assume the structure as drawn.

How the values were obtained:
in vitro [1] = conditions: human, plasma
[2] = Plasma protein binding, mouse plasma; assay type: in vitro ADME; conditions: mouse, plasma, mouse plasma protein binding; read-out: PPB (m) (converted)
Protocol: (§1) Plasma protein binding of the investigated compounds was determined using equilibrium dialysis in single-use Rapid Equilibrium Dialysis devices with an 8 kDa molecular weight cutoff (Thermo Fisher Scientific), following the manufacturer’s protocol. In brief, 50 μL of undiluted human plasma (Biowest), spiked with the test compound at a final concentration of 100 μM, was added to the sample chamber, while 300 μL of phosphate-buffered saline (PBS) was placed in the buffer chamber. Devices were incubated for 4 h at 37 °C with gentle shaking.
(§2) After dialysis, 7.5 μL aliquots from both the plasma and buffer chambers were transferred directly into wells of a 384-well plate. To equalize the matrices for downstream processing, 7.5 μL of PBS was added to each plasma aliquot, and 7.5 μL of plasma was added to each buffer aliquot. Proteins were precipitated by adding four volumes of ice-cold methanol to each well, followed by thorough mixing and incubation at – 20 °C for 30 min. Plates were then stored overnight at 8 °C. Prior to analysis, the plate was centrifuged at 2,000 × g for 20 min at 8 °C. […] The fraction of unbound compound was calculated using the following equations: %Free=c(bufferchamber)/c(plasmachamber)*100% %Bound=100%−%Free

[3] = Kinetic solubility in PBS; assay type: physicochemical; conditions: phosphate-buffered saline, pH 7.4, aqueous buffer, kinetic from dmso stock
Protocol: Test compounds were prepared as 10 mM stock solutions in DMSO and diluted in phosphate-buffered saline (PBS, pH 7.4) to a 100 μM solution, which was then aliquoted in duplicate. The duplicate samples were incubated in Multiscreen PCF Filter Plates (Merck Millipore) with sealed bottom at room temperature on a shaker for 2 h to allow equilibration. Following incubation, the samples were centrifuged into nonsterile, flat-bottom 96-well plates at 2,200 RCF for 12 min. Supernatants were then diluted 1:99 in a solution of 50% acetonitrile containing 0.1% DMSO. The diluted samples were transferred to 384-well Echo plates, which contained prespotted calibration standards prepared by Echo transfer of 10 mM and 1 mM DMSO stock solutions, resulting in calibration points ranging from 0.05 to 4 μM. Samples and standards were subsequently analyzed by Echo-MS.

[4] = In vivo pharmacokinetic study, intravenous; set-up: species or system male CD-1 mice; conditions: plasma, 1 mg/kg, intravenous; for half-life: male, CD-1, mouse, iv, footnote: t1/2 stability in plasma, text: half-life in mouse PK; for clearance: mouse, male CD-1 mice, single dose, read-out: Cl (obs), observed clearance
Protocol: The pharmacokinetic study was performed by Bienta (Enamine Biology Services) using male CD-1 mice (3 animals, 9 weeks old, body weight ranging from 29.2 to 33.7 g) following intravenous administration. Levels of the test compound were determined by LC-MS/MS in blood plasma over time (seven sampling time points: 5, 15, 30, 60, 120, 240, and 480 min) after a single dose.
Animal treatment and samples preparation were conducted by the Animal Laboratory personnel at Enamine/Bienta.

in vitro [5] = conditions: mouse, plasma
[6] = target: T1, recombinant human CD73 (hCD73) (Homo sapiens, UniProt P21589); experiment: CD73 activity assay on recombinant human CD73; assay type: biochemical; conditions: ΔGexp = RT ln Ki
T1 sequence (P21589 27-574): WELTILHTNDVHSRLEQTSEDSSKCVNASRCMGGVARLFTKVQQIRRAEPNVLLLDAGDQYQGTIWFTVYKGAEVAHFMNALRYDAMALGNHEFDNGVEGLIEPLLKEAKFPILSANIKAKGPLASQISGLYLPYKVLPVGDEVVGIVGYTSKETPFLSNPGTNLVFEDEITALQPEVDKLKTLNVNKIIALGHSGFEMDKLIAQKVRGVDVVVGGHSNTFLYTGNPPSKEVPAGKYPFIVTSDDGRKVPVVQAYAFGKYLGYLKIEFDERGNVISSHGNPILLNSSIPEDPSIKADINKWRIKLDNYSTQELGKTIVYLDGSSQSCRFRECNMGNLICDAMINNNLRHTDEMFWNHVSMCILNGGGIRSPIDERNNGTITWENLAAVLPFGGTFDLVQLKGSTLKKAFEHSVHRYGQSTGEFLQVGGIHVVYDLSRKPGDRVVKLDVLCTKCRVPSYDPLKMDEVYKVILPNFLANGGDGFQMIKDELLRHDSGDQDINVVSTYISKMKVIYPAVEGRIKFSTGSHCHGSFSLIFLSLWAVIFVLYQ

[7] = Microsomal stability assay, mouse liver microsomes; assay type: in vitro ADME; conditions: for Mics (m) comp remaining 60 min: 10 μM; for microsomal CLint at 10 µM: pooled liver microsomes, pH 7.4, read-out: Mics (m) CLint
[8] = Plasma protein binding, equilibrium dialysis, human plasma; assay type: in vitro ADME; conditions: undiluted plasma
Protocol: as §1, §2

[9] = Microsomal stability assay, human liver microsomes; assay type: in vitro ADME; conditions: for Mics (hu) comp remaining 60 min: 10 μM; for microsomal CLint at 10 µM: pooled liver microsomes, pH 7.4, read-out: Mics (hu) CLint
HL-60 = experiment: In vitro cytotoxic activity; assay type: cell-based; conditions: Homo sapiens
Protocol: (§3) All the compounds were also tested for their in vitro cytotoxic activity on a small panel of four cancer cell lines (CCRF-CEM, HepG2, HeLa S3, HL-60) and nonmalignant human dermal fibroblasts (NHDF).

HeLa S3 = experiment: In vitro cytotoxic activity; assay type: cell-based; conditions: Homo sapiens
Protocol: as §3

CCRF-CEM = experiment: In vitro cytotoxic activity; assay type: cell-based; conditions: Homo sapiens
Protocol: as §3

[10] = tested on: nonmalignant human dermal fibroblasts (NHDF); experiment: In vitro cytotoxic activity; assay type: cell-based
Protocol: as §3

HepG2 = experiment: In vitro cytotoxic activity; assay type: cell-based; conditions: Homo sapiens
Protocol: as §3

[11] = Table 6, human plasma, read-out: fup, fraction unbound in human plasma
[12] = human plasma protein binding, read-out: PPB (hu) (converted)

Compound | half-life at 10 µM (in vitro [1]) [h] | fraction unbound at 4 h, 100 µM [2] | solubility at 2 h [3] [µM] | half-life [4] [h] | clearance [4] [mL/min/kg] | half-life at 10 µM (in vitro [5]) [h] | dG_exp, experimental binding free energy [6] | Mics (m) comp remaining 60 min [7] [%] | fraction unbound at 4 h, 100 µM [8, 11] | Mics (hu) comp remaining 60 min [9] [%] | microsomal CLint at 10 µM [7] [µL/min/mg] | IC50 (HL-60) [µM] | IC50 (HeLa S3) [µM] | IC50 (CCRF-CEM) [µM] | IC50 [10] [µM] | IC50 (HepG2) [µM] | fraction unbound at 4 h, 100 µM [8, 12] | microsomal CLint at 10 µM [9] [µL/min/mg]
O=P(O)(O)CP(=O)(O)OC[C@H]1O[C@@H](n2ccc3c(-c4ccnc5ccccc45)ncnc32)[C@@H](F)[C@@H]1O [34A.28] | > 2 | 0.058 | 100 (≈ 53.8 µg/mL) | 1.32 | 18 | > 2 | –12.5 kcal/mol | 101 | 0.014 | 102 | – | – | – | – | – | – | – | –
O=P(O)(O)CP(=O)(O)OC[C@H]1O[C@@H](n2cnc3c(-c4cccc5ccccc45)ncnc32)[C@H](O)[C@@H]1O [31A.6, [(5-{[6-(Naphth-1-yl)-9H-purin-9-yl]-β-D-ribofuranosyl}oxy)phosphonomethyl]phosphonic Acid] | > 2 | 0.628 | 87 (≈ 46.7 µg/mL) | – | – | > 2 | – | 108 | – | 121 | < 1 | > 10 | > 10 | > 10 | > 10 | > 10 | 0.093 | < 1
O=P(O)(O)CP(=O)(O)OC[C@H]1O[C@@H](n2ccc3c(-c4ccc(-c5ccccc5)cc4)ncnc32)[C@H](O)[C@@H]1O [4A.9] | > 2 | 0.144 | 64 (≈ 35.9 µg/mL) | – | – | > 2 | – | – | – | – | – | > 10 | > 10 | > 10 | > 10 | > 10 | 0.011 | –
O=P(O)(O)CP(=O)(O)OC[C@H]1O[C@@H](n2ccc3c(-c4ccc5ccccc5c4)ncnc32)[C@@H](F)[C@@H]1O [34A.7] | > 2 | 0.022 | 82 (≈ 44.1 µg/mL) | 3.13 | 7.2 | > 2 | –11.8 kcal/mol | 90 | 0.002 | 94 | – | – | – | – | – | – | – | –
O=P(O)(O)CP(=O)(O)OC[C@H]1O[C@@H](n2ccc3c(-c4cccc5c4CCCC5)ncnc32)[C@@H](F)[C@@H]1O [34A.12] | > 2 | 0.055 | 75 (≈ 40.6 µg/mL) | – | – | > 2 | –12.4 kcal/mol | 115 | 0.007 | 96 | – | – | – | – | – | – | – | –
O=P(O)(O)CP(=O)(O)OC[C@H]1O[C@@H](n2ccc3c(-c4ccncc4)ncnc32)[C@H](O)[C@@H]1O [4A.16] | > 2 | 0.833 | 79 (≈ 38.4 µg/mL) | – | – | > 2 | – | 80 | – | 94 | 9 | > 10 | > 10 | > 10 | > 10 | > 10 | 0.304 | 3
O=P(O)(O)CP(=O)(O)OC[C@H]1O[C@@H](n2ccc3c(-c4cccc5ccccc45)ncnc32)[C@@H](F)[C@@H]1O [34A.6] | > 2 | 0.065 | 167 (≈ 89.7 µg/mL) | 1.3 | 19 | > 2 | –11.8 kcal/mol | 94 | 0.017 | 97 | – | – | – | – | – | – | – | –
O=P(O)(O)CP(=O)(O)OC[C@H]1O[C@@H](n2ccc3c(-c4ccc(F)c5ccccc45)ncnc32)[C@@H](F)[C@@H]1O [34A.23] | > 2 | 0.017 | 100 (≈ 55.5 µg/mL) | – | – | > 2 | –12.3 kcal/mol | 116 | 0.001 | 98 | – | – | – | – | – | – | – | –
O=P(O)(O)CP(=O)(O)OC[C@H]1O[C@@H](n2ccc3c(-c4ccc5c(c4)CCCC5)ncnc32)[C@@H](F)[C@@H]1O [34A.17] | > 2 | 0.253 | 73 (≈ 39.5 µg/mL) | – | – | > 2 | –11.8 kcal/mol | 89 | 0.05 | 90 | – | – | – | – | – | – | – | –
O=P(O)(O)CP(=O)(O)OC[C@H]1O[C@@H](n2ccc3c(-c4ccccc4)ncnc32)[C@@H](F)[C@@H]1O [34A.5, [(5-{[4-Phenyl-7H-pyrrolo[2,3-d]pyrimidin-7-yl]-2-deoxy-2-fluoro-β-D-arabinosyl}oxy)phosphonomethyl]phosphonic Acid] | > 2 | 0.2 | 245 (≈ 119 µg/mL) | 5.1 | 3.3 | > 2 | –11.2 kcal/mol | 97 | 0.022 | 93 | – | – | – | – | – | – | – | –
